From US20190112580A1, “METHODS FOR TREATING CO[…] AND RELATED CULTURED CELLS” (priority 2017, published 2019)

How the values were obtained:
[1] = system: CpG island located in the promoter region of the human ITGB1 gene; experiment: Promoter methylation PCR of ITGB1 CpG island; assay type: cell-based; details: 5 μM, 24-hour treatment in proliferation medium before differentiation
Protocol: Myoblast cell preparations from CP and TD study subjects were exposed to 5 μM of the DNA methyltransferase inhibitor 5-AZA in proliferation medium. 5-AZA was introduced while the myoblast cell preparations were being developed in the high-serum medium, once the myoblast cell preparations were at about 70% cell confluence by visual inspection. The myoblast cell preparations each were cultured in a high-serum medium in the presence of 5 μM of 5-AZA for 24 hours. The myoblast cell preparations then had the 5-AZA washed off by switching the myoblast cell preparations each to a low-serum medium.
Myoblasts were seeded at 50,000 cells/well, at approximately 13,000 cells/cm^2, in a 12-well plate and maintained in the same proliferation medium as described in Example 1. The cells were allowed to proliferate at 37° C. and 5% CO2 until they reach up to 50-80% cell confluence by visual inspection. The proliferating myoblasts are then treated with 5 μM 5-AZA (Sigma-Aldrich) for 24 hours to induce DNA hypomethylation before differentiation. 5-AZA was obtained from a 10 uM stock solution diluted 1:2000. In a 2000 mL well, 1 mL of 5 μM 5-AZA was used. […]
The PCR amplification curves or the intensity of the amplified product in the agarose gel following electrophoresis may be used to quantify the levels of DNA methylation for a specific promoter region. […]

[2] = system: ITGB1D; experiment: ITGB1D protein quantification by Western blotting; assay type: cell-based, human; details: 5 μM applied before differentiation; CP cultures; 48 hours of differentiation in low serum medium
Protocol: After separation, proteins were transferred to 0.45 μm nitrocellulose membrane in a Tris-glycine buffer complemented with 20% methanol. To visualize bands and detect transfer efficiency, membranes were stained with Ponceau S. Membranes were then blocked in a buffer containing 10 mM Tris, 0.15 M NaCl, 0.1% Tween-20 and 1% BSA and incubated with a desired primary antibody (typically 1:500 to 1:1000 dilution) overnight at 4° C. After washing, membranes were incubated with peroxidase-conjugated secondary antibodies (typically at a 1:1000 dilution) for 1 hour at room temperature (Jackson ImmunoResearch Laboratories). Bandscan was identified using chemiluminescence (ECL). Bands also were analyzed by densitometry on a PXi imager (Syngene) and values expressed as arbitrary values of protein levels, normalized either by total proteins transferred on nitrocellulose membrane (as visualized with Ponceau S) or by another reference protein detected by Western blotting.
To test for protein expression levels as shown in FIG. 3A to 3E and FIGS. 4D and 4E, Western blotting was used. […]

In the case of `Nc1ncn([C@@H]2O[C@H](CO)[C@@H](O)[C@H]2O)c(=O)n1` [5-AZA, 5-azacytidine], the “DNA methylation of the CpG island in the ITGB1 promoter region” value [1] is reported as “sufficient to cause hypomethylation of the CpG island in the ITGB1 promoter region” and the “ITGB1D protein expression levels” value [2] is reported as “sufficient to restore ITGB1D protein expression levels”.
